Experimental data as given in patent US20080103191A1, “ENTACAPONE-DERIVATIVES” (priority 2006, published 2008).

Columns and labels:
[1] = Permeability in Caco-2 cells, apical to basolateral; format: in vitro ADME; set-up: dose or concentration left out as unconfirmed; settings: human; 21d Caco-2 monolayer, apical pH 6.5 to basolateral pH 7.4, 60 minutes
Procedure, shortened: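 21-day Caco-2 monolayers dosed apically at 20 mM nominal test item concentration, apical pH 6.5, basolateral pH 7.4. Basolateral receiver sampled after 60 min and quantified by HPLC or LC-MS/MS; ³H-propranolol and ³H-mannitol controls sampled at 120 min and measured by scintillation.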

[2] = Pharmacokinetic profile of compound 15 in Labrasol, TPGS/PG or phosphate buffer in rats; format: in vivo, Male Sprague-Dawley rats; settings: oral 10 mg/kg entacapone equivalents, FIG. 1
Procedure: The pharmacokinetics of compound 15 in rats following oral administration is tested as described in Table 15 below.
The results are summarized in FIG. 1 (The symbols in FIG. 1 have the following meanings: c (ng/mL) concentration in ng/mL, t (min) time in minutes). […] Entacapone concentration is shown in ng/mL, and time is shown in minutes.

CCN(CC)C(=O)/C(C#N)=C/c1cc(OC(=O)OCC2CCCCC2)c(O)c([N+](=O)[O-])c1 [Compound 57, Carbonic acid 5-((E)-2-cyano-2-diethylcarbamoyl-vinyl)-2-hydroxy-3-nitro-phenyl ester cyclohexylmethyl ester] gave a Papp A→B at 60 min [1] of 55 ×10⁻⁶ cm/s.
Compound CCCCCCCCOC(=O)Oc1cc(/C=C(\C#N)C(=O)N(CC)CC)cc([N+](=O)[O-])c1O [Compound 35, Carbonic acid 5-((E)-2-cyano-2-diethylcarbamoyl-vinyl)-2-hydroxy-3-nitro-phenyl ester octyl ester] has a Papp A→B at 60 min [1] greater than 42 ×10⁻⁶ cm/s.
With CCCCC(CC)COC(=O)Oc1cc(/C=C(\C#N)C(=O)N(CC)CC)cc([N+](=O)[O-])c1O (stereo not shown) [Compound 15, Carbonic acid 5-((E)-2-cyano-2-diethylcarbamoyl-vinyl)-2-hydroxy-3-nitro-phenyl ester 2-ethyl-hexyl ester] the “plasma level of entacapone formed, compared with phosphate buffer formulation” value ([2]; Labrasol formulation) was “more constant” and the “plasma level of entacapone formed, compared with phosphate buffer formulation” value ([2]; TPGS/PG formulation) was “more constant”.
